In patent US20070072946A1 (priority 2005, published 2007):
Values joined by “and” are separate entries in the source; they are usually repeats but may differ in a detail not shown here. Equal values may be shown once. Where a name gives a salt, the structure may show the parent alone.

Key:
[1] = tested on: subjects suffering from fibromyalgia syndrome; settings: cited from earlier work; for subjects with significant clinical improvement: after one month; for long-term efficacy: at six months, 19% improvement with placebo; for difference from placebo: at three months
[2] = tested on: patients who met the 1990 ACR criteria for fibromyalgia syndrome; experiment: Multi-center double-blind, randomized, placebo-controlled study of milnacipran for fibromyalgia (Example 1, FMS031); assay type: in vivo, human; settings: for m, number of responders: observed cases; for percentage of responders (greater than 30% reduction in pain from baseline and improvement on the PGIC): observed cases (OC), hydrochloride
Experimental: The primary outcome was a composite responder analysis assessing response rate at weeks 14 and 15, and the secondary analysis assessed response rate at weeks 26 and 27.
This was a multi-center, randomized, double-blinded, placebo-controlled three-arm study, which enrolled 888 patients who met the 1990 ACR criteria for fibromyalgia syndrome as well as the more detailed admission criteria outlined in the protocol.
Patients recorded baseline symptoms for the first two weeks after washing off anti-depressants, benzodiazepines, and certain other drugs that could potentially interfere with efficacy measurements.
All randomized medications (placebo and milnacipran) were administered in a split-dose (BID) fashion. The doses were administered in a dose escalation regimen as outlined below: • Step 1: 12.5 mg 1 day (12.5 mg pm) • Step 2: 25 mg 2 days (12.5 mg am, 12.5 mg pm) • Step 3: 50 mg 4 days (25 mg am, 25 mg pm) • Step 4: 100 mg 7 days (50 mg am, 50 mg pm) • Step 5: 200 mg 7 days (100 mg am, 100 mg pm).
Patients were required to complete electronic diary, as well as additional paper assessments as described in the schedule of study assessments.
In addition to the daily completion of a proprietary electronic patient diary, the following assessments were obtained:
a. Primary Variables: patient global impression of change (PGIC) and the Fibromyalgia Impact Questionnaire (FIQ);
d. FMS Status Assessments:, Patient pain 24 hour and 7 day recall VAS, the SF-36, Multiple Ability Self-report Questionnaire (MASQ, cognitive function), the Multidimensional Health Assessment Questionnaire (MDHAQ) and the Multi-dimensional Fatigue Inventory (MFI). Diary assessments include current pain (morning, random daily, and evening reports); daily recall pain (morning report); medications taken (evening report); overall pain past week (weekly report), overall fatigue in the last week (weekly report), and the extent that pain kept the patient from caring for themselves (weekly report).
The primary endpoint of this study was a composite responder analysis implementing analysis of three domains of interest, evaluated at […]. The domains measured were:
1) pain (measured by an electronic diary as a daily recall pain score, calculated to weekly average scores);
2) patient global (measured by the PGIC, 1-7 scale); and
3) physical function (measured by the FIQ-PF).
For the primary analysis, the pain domain score was determined by a calculation that compared the average of treatment weeks 14 and 15 to the two baseline weeks, and treatment weeks 26 and 27 vs. baseline for the secondary analysis. The last observation was carried forward if neither the week 14 nor week 15 (or week 26/27) patient self-reported pain score is available to compare to the baseline value.
A responder was defined as a subject who experienced a greater than 30% reduction in pain from baseline and improvement on the PGIC.
See Table 1 for a summary of the results in the Intent-to-Treat Population and Table 2 for a summary of the Last Observation Carried Forward (LOCF), Baseline Observation Carried Forward (BOCF) and study completer (OC) populations. LOCF is an analysis in which observations are carried forward to the last time point for patients who dropped out. The LOCF analysis treats the carried-forward data as observed data at the last time point. BOCF is an analysis that requires the patient remain active in the trial to be evaluated for response. If a patient withdraws from the trial for any reason they are classed as a non-responder irregardless of their pain and global scores at the time of withdrawal.

fibromyalgia patients = settings: cited from earlier work
patients with FMS = settings: cited from earlier work
[3] = both milnacipran treatment groups (BID and QD), up to 200 mg/day

Compound: CN(C)CCC=C1c2ccccc2CCc2ccccc21 [amitriptyline]
- subjects with significant clinical improvement [1]: 21%
- long-term efficacy [1]: no long-term efficacy could be demonstrated
- difference from placebo [1]: no difference between either treatment group and placebo

Compound: CN(C)CCC=C1c2ccccc2C=Cc2ccccc21 [cyclobenzaprine]
- subjects with significant clinical improvement [1]: 12%
- long-term efficacy [1]: no long-term efficacy could be demonstrated
- difference from placebo [1]: no difference between either treatment group and placebo

Compound: CCN(CC)C(=O)C1(c2ccccc2)CC1CN (centres unmarked) [milnacipran, Z-2-aminomethyl-1-phenyl-N,N-diethylcyclopropanecarboxamide hydrochloride]
- efficacy of low dose compared with high dose ([2]; 100 mg/day vs 200 mg/day, long-term treatment): almost as effective as continued administration of high dose milnacipran
- Individual Component Responder Rate, PGIC (LOCF) ([2]; 100 mg, 3 month): 54.0%
- Individual Component Responder Rate, Pain (LOCF) ([2]; 100 mg, 3 month): 35.7%
- Pain Composite Responder Rate, Sensitivity Analysis I (BOCF) ([2]; 100 mg, 3 month): 32.1%
- Pain Composite Responder Rate, Sensitivity Analysis II ([2]; 100 mg, 3 month): 32.%
- Pain Composite Responder Rate, Sensitivity Analysis III ([2]; 100 mg, 3 month): 32.1%
- Pain Composite Responder Rate, Primary Analysis (LOCF) ([2]; 100 mg, 3 month, N = 224): 33.5%
- Individual Component Responder Rate, PGIC (LOCF) ([2]; 100 mg, 6 month): 49.6%
- Individual Component Responder Rate, Pain (LOCF) ([2]; 100 mg, 6 month): 35.7%
- Pain Composite Responder Rate, Sensitivity Analysis I (BOCF) ([2]; 100 mg, 6 month): 26.8%
- Pain Composite Responder Rate, Sensitivity Analysis II ([2]; 100 mg, 6 month): 27.2%
- Pain Composite Responder Rate, Sensitivity Analysis III ([2]; 100 mg, 6 month): 29.5%
- Pain Composite Responder Rate, Primary Analysis (LOCF) ([2]; 100 mg, 6 month, N = 224): 30.8%
- m, number of responders ([2]; 100 mg, treatment weeks 14-15, n = 135): 72
- m, number of responders ([2]; 100 mg, treatment weeks 26-27, n = 121): 60
- Individual Component Responder Rate, PGIC (LOCF) ([2]; 200 mg, 3 month): 50.6%
- Individual Component Responder Rate, Pain (LOCF) ([2]; 200 mg, 3 month): 38.3%
- Pain Composite Responder Rate, Sensitivity Analysis I (BOCF) ([2]; 200 mg, 3 month): 32.4%
- Pain Composite Responder Rate, Sensitivity Analysis II ([2]; 200 mg, 3 month): 32.7%
- Pain Composite Responder Rate, Sensitivity Analysis III ([2]; 200 mg, 3 month): 32.4%
- Pain Composite Responder Rate, Primary Analysis (LOCF) ([2]; 200 mg, 3 month, N = 441): 34.9%
- Individual Component Responder Rate, PGIC (LOCF) ([2]; 200 mg, 6 month): 49.9%
- Individual Component Responder Rate, Pain (LOCF) ([2]; 200 mg, 6 month): 35.4%
- Pain Composite Responder Rate, Sensitivity Analysis I (BOCF) ([2]; 200 mg, 6 month): 27.0%
- Pain Composite Responder Rate, Sensitivity Analysis II ([2]; 200 mg, 6 month): 28.6%
- Pain Composite Responder Rate, Sensitivity Analysis III ([2]; 200 mg, 6 month): 29.9%
- Pain Composite Responder Rate, Primary Analysis (LOCF) ([2]; 200 mg, 6 month, N = 441): 32.2%
- m, number of responders ([2]; 200 mg, treatment weeks 14-15, n = 260): 143
- m, number of responders ([2]; 200 mg, treatment weeks 26-27, n = 230): 119
- long-term relief from fibromyalgia and its symptoms ([2]; continued daily administration for at least three months): provides long-term (at least three months) relief from fibromyalgia and its symptoms
- percentage of responders (greater than 30% reduction in pain from baseline and improvement on the PGIC) ([2]; milnacipran 100 mg/day BID, 3 months (treatment weeks 14-15)): 53.33% and 53.3%
- percentage of responders (greater than 30% reduction in pain from baseline and improvement on the PGIC) ([2]; milnacipran 100 mg/day BID, 3 months (treatment weeks 14-15), listed as Milnacipran): 53.33%
- percentage of responders (greater than 30% reduction in pain from baseline and improvement on the PGIC) ([2]; milnacipran 100 mg/day BID, 6 months (treatment weeks 26-27)): 49.59% and 49.6%
- percentage of responders (greater than 30% reduction in pain from baseline and improvement on the PGIC) ([2]; milnacipran 100 mg/day BID, 6 months (treatment weeks 26-27), listed as Milnacipran): 49.59%
- percentage of responders (greater than 30% reduction in pain from baseline and improvement on the PGIC) ([2]; milnacipran 200 mg/day BID, 3 months (treatment weeks 14-15)): 55.0%
- percentage of responders (greater than 30% reduction in pain from baseline and improvement on the PGIC) ([2]; milnacipran 200 mg/day BID, 3 months (treatment weeks 14-15), listed as Milnacipran): 55.00%
- percentage of responders (greater than 30% reduction in pain from baseline and improvement on the PGIC) ([2]; milnacipran 200 mg/day BID, 6 months (treatment weeks 26-27)): 51.74% and 51.7%
- percentage of responders (greater than 30% reduction in pain from baseline and improvement on the PGIC) ([2]; milnacipran 200 mg/day BID, 6 months (treatment weeks 26-27), listed as Milnacipran): 51.74%
- deaths or serious adverse events associated with treatment (fibromyalgia patients; Phase II study): no deaths or serious adverse events
- acute (short-term) efficacy on the symptom of pain in FMS (fibromyalgia patients; Phase II trial): effective acute (short-term) therapy for the symptom of pain in FMS
- completers reporting an improvement in their overall status on the PGIC (fibromyalgia patients; [3]): over 70%
- completers reporting worsening on the PGIC (fibromyalgia patients; [3]): 10%
- patients with elevation in hepatic enzymes reported as adverse event (fibromyalgia patients; milnacipran-treated patients): 2%
- efficacy of BID versus QD dosing in treating pain (fibromyalgia patients; twice-daily dosing compared with QD): more effective in treating pain than QD dosing
- efficacy of BID versus QD dosing on fatigue, mood, global wellness, and function (fibromyalgia patients; twice-daily vs once-daily dosing, up to 200 mg/day): approximately equally effective

Compound: COc1ccc(C(CN(C)C)C2(O)CCCCC2)cc1 (centres unmarked) [venlafaxine]
- patients with insomnia requiring adjunctive medical therapy (patients with FMS; of 11 completing patients): 3 patients
- patients with a positive response (50% or greater improvement in two different measurements of overall pain) (patients with FMS; of the 11 patients that completed the study): 6 patients
